# Test results as given in PubChem BioAssay (NCI).
#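 Cells were grown in 96-well plates and exposed to each compound for 48 hours at five concentrations; endpoints were interpolated linearly between bracketing concentrations, or set to the highest concentration if not reached. Definition used: TGI = concentration required for complete inhibition of growth.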
# Tested on: UO-31 renal
# Experiment: growth of human tumour cells (NCI), 48 h
row,Compound,TGI [µM]
1,CCOC(=O)C(=CNC(=S)c1ccncc1)C(=O)OCC,> 100
2,C=CCC(NCc1ccccc1)[C@H](OCc1ccccc1)[C@@H]1COC(C)(C)O1 (stereo not given in full),83.1

# Tested on: HCT-15 colon
# Experiment: growth of human tumour cells (NCI), 48 h
row,Compound,TGI [µM]
1,CC(=O)Oc1c(C)cc2c(c1C)C(C)CN2C(C)=O (stereo not given),> 100
2,CC1(C)COC(c2ccc(C(=O)c3ccc(Cl)cc3)cc2)=N1,> 100
3,CCOC1CCC2C(CCC(/C=C/c3ccc(O)c4ncccc34)N2C)C1 (stereo not given),> 100
4,CCOC(=O)C(=CNC(=S)c1ccncc1)C(=O)OCC,> 100
5,C=CCC(NCc1ccccc1)[C@H](OCc1ccccc1)[C@@H]1COC(C)(C)O1 (stereo not given in full),64.9

# Tested on: K-562 leukemia
# Experiment: growth of human tumour cells (NCI), 48 h
row,Compound,TGI [µM]
1,CC(=O)Oc1c(C)cc2c(c1C)C(C)CN2C(C)=O (stereo not given),> 100
2,CC1(C)COC(c2ccc(C(=O)c3ccc(Cl)cc3)cc2)=N1,> 100
3,CCOC1CCC2C(CCC(/C=C/c3ccc(O)c4ncccc34)N2C)C1 (stereo not given),> 100
4,CCOC(=O)C(=CNC(=S)c1ccncc1)C(=O)OCC,> 100
5,C=CCC(NCc1ccccc1)[C@H](OCc1ccccc1)[C@@H]1COC(C)(C)O1 (stereo not given in full),56.4

# Tested on: EKVX NSCLC
# Experiment: growth of human tumour cells (NCI), 48 h
row,Compound,TGI [µM]
1,CC(=O)Oc1c(C)cc2c(c1C)C(C)CN2C(C)=O (stereo not given),> 100
2,CC1(C)COC(c2ccc(C(=O)c3ccc(Cl)cc3)cc2)=N1,> 100
3,CCOC1CCC2C(CCC(/C=C/c3ccc(O)c4ncccc34)N2C)C1 (stereo not given),90.4
4,CCOC(=O)C(=CNC(=S)c1ccncc1)C(=O)OCC,> 100
5,C=CCC(NCc1ccccc1)[C@H](OCc1ccccc1)[C@@H]1COC(C)(C)O1 (stereo not given in full),> 100

# Tested on: MOLT-4 leukemia
# Experiment: growth of human tumour cells (NCI), 48 h
row,Compound,TGI [µM]
1,CC(=O)Oc1c(C)cc2c(c1C)C(C)CN2C(C)=O (stereo not given),> 100
2,CC1(C)COC(c2ccc(C(=O)c3ccc(Cl)cc3)cc2)=N1,> 100
3,CCOC1CCC2C(CCC(/C=C/c3ccc(O)c4ncccc34)N2C)C1 (stereo not given),> 100
4,CCOC(=O)C(=CNC(=S)c1ccncc1)C(=O)OCC,> 100
5,C=CCC(NCc1ccccc1)[C@H](OCc1ccccc1)[C@@H]1COC(C)(C)O1 (stereo not given in full),83.1

# Tested on: U251 CNS
# Experiment: growth of human tumour cells (NCI), 48 h
row,Compound,TGI [µM]
1,CC(=O)Oc1c(C)cc2c(c1C)C(C)CN2C(C)=O (stereo not given),> 100
2,CC1(C)COC(c2ccc(C(=O)c3ccc(Cl)cc3)cc2)=N1,> 100
3,CCOC1CCC2C(CCC(/C=C/c3ccc(O)c4ncccc34)N2C)C1 (stereo not given),> 100
4,CCOC(=O)C(=CNC(=S)c1ccncc1)C(=O)OCC,> 100
5,C=CCC(NCc1ccccc1)[C@H](OCc1ccccc1)[C@@H]1COC(C)(C)O1 (stereo not given in full),> 100

# Tested on: UACC-257 melanoma
# Experiment: growth of human tumour cells (NCI), 48 h
row,Compound,TGI [µM]
1,CC(=O)Oc1c(C)cc2c(c1C)C(C)CN2C(C)=O (stereo not given),> 100
2,CC1(C)COC(c2ccc(C(=O)c3ccc(Cl)cc3)cc2)=N1,64.9
3,CCOC(=O)C(=CNC(=S)c1ccncc1)C(=O)OCC,> 100
4,C=CCC(NCc1ccccc1)[C@H](OCc1ccccc1)[C@@H]1COC(C)(C)O1 (stereo not given in full),58.1

# Tested on: HS 578T breast
# Experiment: growth of human tumour cells (NCI), 48 h
row,Compound,TGI [µM]
1,CC(=O)Oc1c(C)cc2c(c1C)C(C)CN2C(C)=O (stereo not given),> 100
2,CC1(C)COC(c2ccc(C(=O)c3ccc(Cl)cc3)cc2)=N1,> 100
3,CCOC1CCC2C(CCC(/C=C/c3ccc(O)c4ncccc34)N2C)C1 (stereo not given),51.6
4,CCOC(=O)C(=CNC(=S)c1ccncc1)C(=O)OCC,> 100
5,C=CCC(NCc1ccccc1)[C@H](OCc1ccccc1)[C@@H]1COC(C)(C)O1 (stereo not given in full),> 100

# Tested on: SK-MEL-2 melanoma
# Experiment: growth of human tumour cells (NCI), 48 h
row,Compound,TGI [µM]
1,CC(=O)Oc1c(C)cc2c(c1C)C(C)CN2C(C)=O (stereo not given),> 100
2,CC1(C)COC(c2ccc(C(=O)c3ccc(Cl)cc3)cc2)=N1,> 100
3,CCOC(=O)C(=CNC(=S)c1ccncc1)C(=O)OCC,> 100
4,C=CCC(NCc1ccccc1)[C@H](OCc1ccccc1)[C@@H]1COC(C)(C)O1 (stereo not given in full),46

# Tested on: T-47D breast
# Experiment: growth of human tumour cells (NCI), 48 h
row,Compound,TGI [µM]
1,CC(=O)Oc1c(C)cc2c(c1C)C(C)CN2C(C)=O (stereo not given),> 100
2,CCOC1CCC2C(CCC(/C=C/c3ccc(O)c4ncccc34)N2C)C1 (stereo not given),62
3,CCOC(=O)C(=CNC(=S)c1ccncc1)C(=O)OCC,> 100

# Tested on: HL-60(TB) leukemia
# Experiment: growth of human tumour cells (NCI), 48 h
row,Compound,TGI [µM]
1,CC(=O)Oc1c(C)cc2c(c1C)C(C)CN2C(C)=O (stereo not given),> 100
2,CC1(C)COC(c2ccc(C(=O)c3ccc(Cl)cc3)cc2)=N1,> 100
3,CCOC1CCC2C(CCC(/C=C/c3ccc(O)c4ncccc34)N2C)C1 (stereo not given),> 100
4,CCOC(=O)C(=CNC(=S)c1ccncc1)C(=O)OCC,> 100

# Tested on: MALME-3M melanoma
# Experiment: growth of human tumour cells (NCI), 48 h
row,Compound,TGI [µM]
1,CC1(C)COC(c2ccc(C(=O)c3ccc(Cl)cc3)cc2)=N1,> 100
2,CCOC1CCC2C(CCC(/C=C/c3ccc(O)c4ncccc34)N2C)C1 (stereo not given),> 100
3,CCOC(=O)C(=CNC(=S)c1ccncc1)C(=O)OCC,> 100
4,C=CCC(NCc1ccccc1)[C@H](OCc1ccccc1)[C@@H]1COC(C)(C)O1 (stereo not given in full),76.7

# Tested on: SF-268 CNS
# Experiment: growth of human tumour cells (NCI), 48 h
row,Compound,TGI [µM]
1,CC(=O)Oc1c(C)cc2c(c1C)C(C)CN2C(C)=O (stereo not given),> 100
2,CC1(C)COC(c2ccc(C(=O)c3ccc(Cl)cc3)cc2)=N1,> 100
3,CCOC1CCC2C(CCC(/C=C/c3ccc(O)c4ncccc34)N2C)C1 (stereo not given),> 100
4,CCOC(=O)C(=CNC(=S)c1ccncc1)C(=O)OCC,> 100
5,C=CCC(NCc1ccccc1)[C@H](OCc1ccccc1)[C@@H]1COC(C)(C)O1 (stereo not given in full),> 100

# Tested on: 786-0 renal
# Experiment: growth of human tumour cells (NCI), 48 h
row,Compound,TGI [µM]
1,CC(=O)Oc1c(C)cc2c(c1C)C(C)CN2C(C)=O (stereo not given),> 100
2,CC1(C)COC(c2ccc(C(=O)c3ccc(Cl)cc3)cc2)=N1,> 100
3,CCOC1CCC2C(CCC(/C=C/c3ccc(O)c4ncccc34)N2C)C1 (stereo not given),> 100
4,CCOC(=O)C(=CNC(=S)c1ccncc1)C(=O)OCC,> 100
5,C=CCC(NCc1ccccc1)[C@H](OCc1ccccc1)[C@@H]1COC(C)(C)O1 (stereo not given in full),> 100

# Tested on: SF-539 CNS
# Experiment: growth of human tumour cells (NCI), 48 h
row,Compound,TGI [µM]
1,CC(=O)Oc1c(C)cc2c(c1C)C(C)CN2C(C)=O (stereo not given),> 100
2,CC1(C)COC(c2ccc(C(=O)c3ccc(Cl)cc3)cc2)=N1,> 100
3,CCOC1CCC2C(CCC(/C=C/c3ccc(O)c4ncccc34)N2C)C1 (stereo not given),29.2
4,CCOC(=O)C(=CNC(=S)c1ccncc1)C(=O)OCC,> 100
